Experimental data as given in US20230119002A1, “COMPOSITIONS AND METHODS CONTAINING REDUCED NICOTINAMIDE RIBOSIDE FOR PREVENTION AND TREATMENT OF CARDIOVASCULAR DISEASES AND CONDITIONS” (SOCIETE DES PRODUITS NESTLE S.A., priority 2020, published 2023).
Structures can show the parent of a compound that is named as a salt.

Tests used:
[1] = Stability in isolated mouse plasma; assay type: in vitro ADME
Text: (§1) Levels of NRH and other NAD-related metabolites in biological samples were obtained by using a cold liquid-liquid extraction using a mixture of methanol:water:chloroform in 5:3:5 (v/v), from which the polar phase was recovered for hydrophilic interaction ultra-high performance liquid chromatography mass spectrometry (UHPLC-MS) analysis. The UHPLC consisted of a binary pump, a cooled autosampler, and a column oven (DIONEX Ultimate 3000 UHPLC+ Focused, Thermo Scientific), connected to a triple quadrupole spectrometer (TSQ Vantage, Thermo Scientific) equipped with a heated electrospray ionisation (H-ESI) source. Of each sample, 2 μL were injected into the analytical column (2.1 mm×150 mm, 5 μm pore size, 200 Å HILICON iHILIC®-Fusion(P)), guarded by a pre-column (2.1 mm×20 mm, 200 Å HILICON iHILIC®-Fusion(P) Guard Kit) operating at 35° C. The mobile phase (10 mM ammonium acetate at pH 9, A, and acetonitrile, B) was pumped at 0.25 mL/min flow rate over a linear gradient of decreasing organic solvent (0.5-16 min, 90-25% B), followed by re-equilibration for a total run time of 30 min. The MS operated in positive mode at 3500 V with multiple reaction monitoring (MRM). The software Xcalibur v4.1.31.9 (Thermo Scientific) was used for instrument control, data acquisition and processing. Retention time and mass detection was confirmed by authentic standards.
(§2) NR degradation to NAM has been proposed as a limitation for its pharmacological efficacy. To evaluate whether NRH was also susceptible to degradation to NAM, we spiked NRH or NR in isolated mouse plasma. […] We also tested the stability of NRH in other matrixes. […] Finally, we also certified NRH stability in water (pH=7, at room temperature) for 48 h.

[2] = Stability in FBS supplemented media; assay type: in vitro ADME
Procedure: as §2

[3] = Tissue NAD+ and circulating metabolites after IP injection in mice; assay type: in vivo; settings: for NAD+ levels in liver, muscle and kidney: after 1 h
Text: as §1
The above results prompted us to test whether NRH could act as an effective NAD+ precursor in vivo. For this, we first intraperitoneally (IP) injected mice with either NR or NRH (500 mg/kg). […] Importantly, NRH was detectable in circulation after IP injection.

[4] = assay type: in vivo, mice
Procedure: 8 week-old C57BI/6NTac mice were orally gavaged with either saline (as vehicle), NR (500 mg/kg) or NRH (500 mg/kg). After 1 hour, liver, skeletal muscle and kidney NAD^+ levels were evaluated. All results are expressed as mean+/−SEM of n=5 mice per group. * indicates statistical difference at p<0.05 vs. vs. saline-treated mice. # indicates statistical difference at p<0.05 vs. NR treated mice.
as §1
Oral administration of NRH led to very similar results to those observed after IP administration. […] NRH was detectable in plasma 1 h after oral administration. In contrast, NR levels were undetectable at 1 h after NR administration.

NRK1 = assay: NAD+ levels in primary hepatocytes from control or NRK1 knockout mice; settings: 1 hour of treatment, NRK1 knockout mouse hepatocytes
AML12 hepatocytes = assay: Intracellular NAD+ levels in AML12 hepatocytes after NRH or NR treatment; assay type: cell-based
Text: as §1
Even at such relatively low dose, NRH achieved similar increases in intracellular NAD+ levels to those reached with NR at 50-fold higher concentrations.
NRH actions were also extremely fast (FIG. 3), as significant increases in NAD+ levels were observed within 5 minutes after NRH treatment.

C2C12 myotubes = assay: NAD+ levels in C2C12 myotubes after NRH treatment; assay type: cell-based
Procedure: (§3) The ability of NRH to potently increase NAD+ was tested as well in other cell type models.

INS1-cells = assay: NAD+ levels in INS1-cells after NRH treatment; assay type: cell-based
Procedure: as §3

3T3 fibroblasts = assay: NAD+ levels in 3T3 fibroblasts after NRH treatment; assay type: cell-based
Procedure: as §3

[5] = system: equilibrative nucleoside transporters (ENTs); assay: NRH-induced NAD+ synthesis with ENT-mediated transport blocked by NBTI; assay type: cell-based; settings: in the presence of NBTI (ENT blocker)
Text: In order to understand the exact path by which NRH synthesizes NAD+, we initially evaluated whether NRH, could be transported into the cell by equilibrative nucleoside transporters (ENTs).

NAMPT = molecular target: T1, NAMPT (Mus musculus, UniProt Q99KQ4); assay: NRH-induced NAD+ synthesis with NAMPT inhibitor FK866; assay type: cell-based
T1 construct: endogenous in cells; AML12 inferred

adenosine kinase (AK) = molecular target: T2, adenosine kinase (AK) (Mus musculus, UniProt P55264); assay: NRH-induced NAD+ synthesis with adenosine kinase inhibitors; assay type: cell-based
T2 construct: endogenous in cells; host or cells: AML12 cells
Procedure: AML12 cells were treated with an adenosine kinase inhibitor (5-IT; […]) for 1 hour prior to NRH treatment at the doses indicated. Then, 1 hour later, acidic extracts were obtained to measure NAD^+ levels. All values in the figure are expressed as mean+/−SEM of 3 independent experiments. * indicates statistical difference at p<0.05 vs. the respective vehicle treated group.
Considering the molecular structure of NRH, we reasoned that an alternative nucleoside kinase could be responsible for the phosphorylation of NRH. Confirming this expectation, the adenosine kinase (AK) inhibitor 5-iodotubercidin (5-IT) fully ablated the action of NRH. The role of AK in NRH-mediated NAD+ synthesis was confirmed using a second, structurally different, AK inhibitor, ABT-702. Metabolomic analyses further confirmed that upon inhibition of AK, the generation of NMNH, NADH and NAD+ was fully blunted, even if NRH was effectively entering the cell.

NMNAT = assay: NRH-induced NAD+ synthesis with NMNAT inhibitor gallotannin; assay type: cell-based
Text: As a follow-up step, NMNAT enzymes could catalyze the transition from NMNH to NADH. […] Yet, part of the NRH action remained after gallotannin treatment when NRH was used at maximal doses.

zebrafish embryos = assay: Doxorubicin-induced toxicity in zebrafish larvae; assay type: in vivo; settings: Doxorubicin 25 uM with NRH 500 uM, up to 60 h
Procedure: 1 day post fertilization zebrafish embryos were placed in 24 well plates and treated with Doxorubicin (25 uM), either alone or in combination with NRH (500 uM). Untreated group was exposed to DMSO (0.05%). Health of the larvae was monitored frequently, and dead larvae were scored overtime, up to 60 h treatment. Results are expressed as percent of survival of n=60 embryos per group. Statistics represented were calculated by pairwise comparison using log-rank test and p-value adjustment was performed by Bonferroni correction. p-Value for median survival of untreated vs Doxorubicin <0.0001, p-value Doxorubicin vs Doxorubicin+NRH <0.0001.
Doxorubicin is a chemotherapeutic agent that is well established to be cardiotoxic. This drug has also been described to induce cardiomyopathy in zebrafish larvae. 1 day post fertilization zebrafish embryos were placed in 24 well plates and treated with Doxorubicin (25 uM), either alone or in combination with NRH (500 uM). Untreated group was exposed to DMSO (0.05%). Health of the larvae was monitored frequently, and dead larvae were scored overtime, up to 60 h treatment. Results are expressed as percent of survival of n=60 embryos per group.

zebrafish larvae = assay: Ethanol-induced cardiac edema in zebrafish larvae; assay type: in vivo; settings: 2% Ethanol during 20 h, NRH 500 uM co-treatment, 3 days post fertilization
Procedure: Phenotypic scoring of cardiac edema severity in zebrafish larvae at 3 days post fertilization exposed to 2% Ethanol during 20 h with or without NRH (500 uM) co-treatment (untreated, n=60; Ethanol, n=73; Ethanol +NRH, n=72). Statistics represented were calculated by non-parametric Chi-square test without p-value adjustment. **** p-Value<0.0001, * p-Value=0.0275.
Phenotypic scoring of cardiac edema severity in zebrafish larvae at 3 days post fertilization exposed to 2% Ethanol during 20 h with or without NRH (500 uM) co-treatment (untreated, n=60; Ethanol, n=73; Ethanol+NRH, n=72). This indicates NRH protects against ethanol-induced cardiac edema in Zebrafish.

H9C2 cardiomyocytes = assay: Oxidative stress-induced cardiomyocyte cell death; assay type: cell-based; settings: H2O2 0.25 mM or 0.5 mM for 24 hours, NRH 0.1 mM
Procedure: H9C2 cardiomyocytes were differentiated for 6 days and then were treated with hydrogen peroxide (H2O2; at either 0.25 mM or 0.5 mM) for 24 hrs in the presence or absence of NRH (0.1 mM). PBS was used as vehicle for NRH. After 24 hrs, cell viability was evaluated by lumiscence using a commercial kit (Cell Title-Glow; Promega). All results are expressed as meand+/−SEM of n=6 experiments. * indicates P<0.05 vs. the respective vehicle treated group.
H9C2 cardiomyocytes were differentiated for 6 days and then were treated with hydrogen peroxide (H2O2; at either 0.25 mM or 0.5 mM) for 24 hours in the presence or absence of NRH (0.1 mM). PBS was used as vehicle for NRH. After 24 hours, cell viability was evaluated by lumiscence using a commercial kit (Cell Title-Glow; Promega).

T2 sequence (P55264 whole entry): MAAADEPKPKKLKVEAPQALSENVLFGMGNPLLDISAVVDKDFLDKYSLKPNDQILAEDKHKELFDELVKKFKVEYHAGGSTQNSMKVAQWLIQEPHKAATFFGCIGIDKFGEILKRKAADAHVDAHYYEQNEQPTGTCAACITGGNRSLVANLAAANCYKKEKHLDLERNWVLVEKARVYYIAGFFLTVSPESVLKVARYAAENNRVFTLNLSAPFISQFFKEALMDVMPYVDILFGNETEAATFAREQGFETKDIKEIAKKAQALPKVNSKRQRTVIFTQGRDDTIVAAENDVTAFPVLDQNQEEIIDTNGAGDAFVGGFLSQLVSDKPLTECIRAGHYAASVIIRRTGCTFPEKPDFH
T1 sequence (Q99KQ4 whole entry): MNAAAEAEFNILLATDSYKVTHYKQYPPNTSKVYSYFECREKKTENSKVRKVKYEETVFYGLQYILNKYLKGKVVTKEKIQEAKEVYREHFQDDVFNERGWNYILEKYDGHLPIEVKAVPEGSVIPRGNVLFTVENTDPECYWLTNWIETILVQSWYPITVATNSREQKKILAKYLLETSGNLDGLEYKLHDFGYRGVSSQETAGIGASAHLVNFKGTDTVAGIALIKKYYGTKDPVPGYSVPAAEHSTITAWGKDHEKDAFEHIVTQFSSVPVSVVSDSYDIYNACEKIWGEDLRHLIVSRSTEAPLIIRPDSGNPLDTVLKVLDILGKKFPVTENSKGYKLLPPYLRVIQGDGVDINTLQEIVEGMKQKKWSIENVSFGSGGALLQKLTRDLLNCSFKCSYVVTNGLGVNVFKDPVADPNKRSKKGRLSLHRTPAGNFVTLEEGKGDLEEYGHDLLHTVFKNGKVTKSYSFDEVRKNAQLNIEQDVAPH

NC(=O)c1ccc[n+]([C@@H]2O[C@H](CO)[C@@H](O)[C@H]2O)c1 [NR, 1-b-D-ribofuranosyl-3-pyridinecarboxamide salt, reference compound]
compound levels in isolated mouse plasma ([1]; spiked, 2 h of incubation): decayed | generation of NAM in isolated mouse plasma ([1]; spiked, 2 h of incubation): increase in NAM | degradation to NAM in FBS supplemented media [2]: occurs | NAM levels in circulation ([3]; mice, IP 500 mg/kg): highly increased | NAD+ levels in liver, muscle and kidney ([3]; mice, IP 500 mg/kg): increased | circulating NAM after NR relative to after NRH treatment ([4]; C57BI/6NTac, mouse, in vivo, po, 1 h): ~4 fold | administered compound in plasma ([4]; mouse, in vivo, po): undetectable | circulating NAM ([4]; mouse, in vivo, po): large increases | NAD+ levels in NRK1KO derived primary hepatocytes (NRK1): failed to increase NAD+ levels

NC(=O)C1=CN([C@@H]2O[C@H](CO)[C@@H](O)[C@H]2O)C=CC1 [NRH]
intracellular NRH and NMNH (AML12 hepatocytes; 5 minutes after treatment): could be detected | concentration of maximal effects on NAD+ synthesis (AML12 hepatocytes; AML12 hepatocytes): around the millimolar range | time to significant increase in NAD+ levels after treatment (AML12 hepatocytes; AML12 hepatocytes (FIG. 3)): ≤ 5 min | NR concentration needed for similar increase in intracellular NAD+, relative to NRH (AML12 hepatocytes; AML12 hepatocytes, NRH at 10 μM): 50 fold | increase of intracellular NAD+ levels at maximal effect (AML12 hepatocytes; AML12 hepatocytes, around the millimolar range): more than 10 fold | ability to increase intracellular NAD+ (AML12 hepatocytes; AML12 hepatocytes, compared with NR): superior to that of NR | concentration at which NAD+ levels were significantly increased (AML12 hepatocytes; AML12 hepatocytes, dose-response (FIG. 2)): 10 µM | increase in intracellular NR and NMN (AML12 hepatocytes; after NRH treatment, compared with NR treatment): greater than that triggered by NR itself | NAD+ levels (C2C12 myotubes): highly elevated | NAD+ levels (INS1-cells): highly elevated | NAD+ levels (3T3 fibroblasts): highly elevated | capacity as extracellular NAD+ precursor [5]: largely lost its capacity | dependence of action on NAMPT (NAMPT): NAMPT-independent | formation of NR and NMN after NRH treatment with 5-IT (adenosine kinase (AK); 5-IT treatment): prevented the formation of NR and NMN | action of NRH on NAD+ with 5-iodotubercidin (5-IT) (adenosine kinase (AK); AML12 cells, 5-IT 10 mM for 1 hour prior to NRH, NAD+ 1 hour later): fully ablated | generation of NMNH, NADH and NAD+ upon inhibition of AK (adenosine kinase (AK); metabolomic analyses): fully blunted | role of AK in NRH-mediated NAD+ synthesis with ABT-702 (adenosine kinase (AK); second, structurally different AK inhibitor): confirmed | NAD+ synthesis after NRH treatment with gallotannin (NMNAT; NMNAT inhibitor gallotannin, part of action remained at maximal doses (0.5 mM)): largely compromised | NRH action with gallotannin at submaximal doses (NMNAT; submaximal NRH doses): totally blocked | NR production on incubation in isolated plasma [1]: did not lead to NR production | degradation to NAM in FBS supplemented media [2]: did not degrade to NAM | NAD+ levels in liver, muscle and kidney ([3]; mice, IP 500 mg/kg): increased | NAM levels in circulation ([3]; mouse, in vivo, ip, 500 mg/kg): only a very mild increase | NR in circulation after NRH treatment versus after NR injection ([3]; mouse, in vivo, ip, 500 mg/kg): much higher levels | NRH in circulation ([3]; mouse, in vivo, ip, 500 mg/kg): detectable | effect on hepatic NAD+ levels ([4]; mice, oral administration, compared with NR): more potent effect | NRH concentration in plasma ([4]; mouse, in vivo, po): 11.16 ± 1.74 µM | administered compound in plasma ([4]; mouse, in vivo, po): detectable | survival under doxorubicin induced toxicity (zebrafish embryos): rescues | cardiac edema severity (phenotypic scoring) (zebrafish larvae): protects | cell viability under oxidative stress (H9C2 cardiomyocytes): protects
